Assay results reported in patent publication US10308689B2, “Dengue virus (DV) polypeptide sequences, T cell epitopes and methods and uses thereof” (LA JOLLA INSTITUTE FOR ALLERGY AND IMMUNOLOGY, priority 2010, dated 2019).
Ends that are not written are not given here.

Key:
[1] = tested on: PBMC from DENV seropositive HLA matched human donors; assay: IFNγ ELISPOT of human PBMC restimulated 7 days with peptide and IL2; type: cell-based; details: responding B*0702 matched donors (out of 5)
Procedure: To evaluate the antigenicity of the epitopes in humans, 2×10^6 PBMC/ml were stimulated in the presence of 1 μg/ml individual peptide for 7 days. Cells were cultured at 37° C., 5% CO2, and recombinant IL2 (10 U/mL, eBiosciences, San Diego, Calif.) was added 3 days after antigenic stimulation. After one week, PBMC were harvested and tested at a concentration of 1×10^5/well in an IFNγ ELISPOT assay, as described above. […] To be considered positive, IFNγ responses needed to exceed the threshold set as the mean responses of HLA non-matched and DENV seronegative donors plus 3 times the standard deviation.

[2] = tested on: PBMC of healthy adult blood donors from Colombo, Sri Lanka; assay: Ex vivo IFNγ ELISPOT, HLA-matched PBMC of Sri Lankan blood donors; type: cell-based, human; design: Total Response per epitope: unit not given here
[3] = tested on: splenic CD4+ T cells from DENV3 (D3S5CX) infected DRB1*0101 transgenic IFN-α/βR−/− mice; assay: IFNγ ELISPOT, CD4+ T cells of DENV3 (D3S5CX) infected DRB1*0101 transgenic IFN-α/βR−/− mice; type: cell-based, mouse; details: day 7 after DENV3 D3S5CX, SFC/10^6 T cells
HLA DRB1*0101 = biological target: T1, HLA DRB1*0101 (Homo sapiens, UniProt P01903+P01911, A100R/D57E/F55L/F60I/F76Y/I96L/L162R/M171V/P40L/Q125E/R42F/V115G/Y59C); assay: MHC peptide-binding assay, purified DRB1*0101
T1 construct: made in house

HLA B*4001 = HLA B*4001 (Homo sapiens, UniProt P01889, A65T/A93T/A95T/D138N/D98Y/E176V/E69K/N87E/Q56L/Q94N/R180L/S121R/S35A/S48T/T167S/V36M/W171L/Y33H/Y91S); assay: MHC peptide-binding assay, purified B*4001
Description: The non-transfected cell line was used as a negative control. […] The LG2 cell line was used as a negative control.

DENV2 (S221) = assay: Peptide immunization and DENV2 challenge, DENV2 RNA by real-time RT-PCR; type: in vivo, mouse; details: immunization with the four H-2^b peptides together; day 4 after S221 infection
Procedure: Mice were euthanized by isoflurane inhalation and blood was collected via cardiac puncture. Serum was separated from whole blood by centrifugation in serum separator tubes (Starsted) Small intestines were put into PBS, flushed, filleted, chopped into small pieces, and put into RNAlater (Qiagen). Other organs were immediately placed into RNAlater and all organs were subsequently homogenized for 3 min in 1 ml tissue lysis buffer (Qiagen Buffer RLT) using a Mini-Beadbeater-8 (BioSpec Products) or QiagenTissueLyser Immediately after homogenization, all tissues were centrifuged (5 min, 4° C., 16,000×g) to pellet debris, and RNA was isolated using the RNeasy Mini Kit (Qiagen). Serum RNA was isolated using the QIAamp Viral RNA Mini Kit (Qiagen). After elution, viral RNA was stored at −80° C. Quantitative RT-PCR was performed according to a published protocol (Houng et al., J Virol Methods 86:1-11 (2000)), except a MyiQ Single-Color Real-Time PCR Detection System (Bio-Rad) with One-Step qRT-PCR Kit (Quanta BioSciences) were used. […] After transcription, DNA was digested with DNase I, and RNA was purified using the RNeasy Mini Kit and quantified by spectrophotometry. To control for RNA quality and quantity when measuring DENV in tissues, the level of 18S rRNA was measured using 18S primers described previously (Lacher, et al., Cancer Res 66:1648 (2006)) in parallel real-time RT-PCR reactions. […]

CC[C@H](C)[C@H](NC(=O)CNC(=O)[C@H](CCC(=O)O)NC(=O)[C@@H]1CCCN1C(=O)[C@@H](N)[C@@H](C)O)C(=O)N[C@H](C(=O)N1CCC[C@H]1C(=O)N[C@@H](CO)C(=O)N[C@@H](CCSC)C(=O)N[C@@H](Cc1ccccc1)C(=O)O)[C@@H](C)CC [NS31978-1987]
frequency in humans [1]: 20% (1 out of 5) | Total Response per epitope ([2]; IFNγ ELISPOT response summed over responding donors, per epitope): 1771.7 | # donors responded ([2]; number of donors responding to the epitope, HLA-matched PBMC, proteome-wide screen): 7 | T cell response [SFC] ([2]; per epitope, ex vivo IFNγ SFC/10^6 PBMC): 1772 SFC | # of responders ([2]; responding donors, HLA allele(s)): 7

CSCC[C@H](NC(=O)[C@H](CCCNC(=N)N)NC(=O)[C@@H]1CCCN1C(=O)[C@@H](N)[C@@H](C)O)C(=O)N[C@@H](CS)C(=O)N[C@H](C(=O)N[C@@H](CCCNC(=N)N)C(=O)N[C@@H](CCC(=O)O)C(=O)N[C@@H](CCC(=O)O)C(=O)N[C@@H](Cc1ccccc1)C(=O)O)[C@@H](C)O [NS52885-2894]
frequency in humans [1]: 60% (3 out of 5)

CC[C@H](C)[C@H](NC(=O)[C@H](C)NC(=O)[C@@H](N)CCCNC(=N)N)C(=O)N[C@@H](Cc1c[nH]c2ccccc12)C(=O)N[C@@H](Cc1ccc(O)cc1)C(=O)N[C@@H](CCSC)C(=O)N[C@@H](Cc1c[nH]c2ccccc12)C(=O)N[C@@H](CC(C)C)C(=O)NCC(=O)N[C@@H](C)C(=O)N[C@@H](CCCNC(=N)N)C(=O)N[C@@H](Cc1ccc(O)cc1)C(=O)N[C@@H](CC(C)C)C(=O)N[C@@H](CCC(=O)O)C(=O)N[C@@H](Cc1ccccc1)C(=O)O [NS52967-2981]
T cell response [SFC] [3]: 586 SFC | IC50 (HLA DRB1*0101): 48 nM

AEQTGVSHNL [NS2B1412-1421]
IC50 (HLA B*4001): 67 nM

GEIGAIALDF [NS31598-1607]
IC50 (HLA B*4001): 40 nM

NS2A8-15: DENV-2 derived H-2^b restricted dominant CD8+ T cell epitope (FSLGVLGM)
lower serum DENV RNA levels, peptide-immunized vs mock-immunized mice (DENV2 (S221)): 350 fold
